Experimental findings from PMC8453635, “Piperidine Azasugars Bearing Lipophilic Chains: Stereoselective Synthesis and Biological Activity as Inhibitors of Glucocerebrosidase (GCase)” (The Journal of Organic Chemistry, 2021) are described below.

In test [1] the target is T1, β-galactosidase (Homo sapiens, UniProt P16278).
T1 construct: from leukocytes isolated from healthy donors (controls); from tissue; host or cells: leukocytes from healthy donors, sonicated homogenate
T1 sequence (P16278 29-677): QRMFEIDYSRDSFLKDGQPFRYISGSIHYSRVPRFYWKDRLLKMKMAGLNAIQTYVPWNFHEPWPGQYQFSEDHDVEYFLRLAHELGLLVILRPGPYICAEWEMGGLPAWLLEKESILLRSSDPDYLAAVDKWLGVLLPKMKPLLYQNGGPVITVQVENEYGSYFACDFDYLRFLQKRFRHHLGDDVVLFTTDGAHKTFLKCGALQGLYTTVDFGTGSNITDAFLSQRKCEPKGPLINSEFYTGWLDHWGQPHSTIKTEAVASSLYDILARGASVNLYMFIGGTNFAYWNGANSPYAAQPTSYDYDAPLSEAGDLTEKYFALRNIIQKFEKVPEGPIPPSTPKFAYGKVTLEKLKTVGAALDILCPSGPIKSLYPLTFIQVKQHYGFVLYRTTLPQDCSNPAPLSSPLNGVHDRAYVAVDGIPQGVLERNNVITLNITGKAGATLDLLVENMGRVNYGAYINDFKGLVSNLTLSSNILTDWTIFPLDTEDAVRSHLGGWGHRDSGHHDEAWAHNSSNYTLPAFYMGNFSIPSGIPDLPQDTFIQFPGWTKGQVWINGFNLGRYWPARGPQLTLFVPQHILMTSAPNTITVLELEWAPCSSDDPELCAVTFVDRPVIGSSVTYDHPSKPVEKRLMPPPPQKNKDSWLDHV
Nature of the test: Human lysosomal glycosidase selectivity screening (leukocyte homogenate). Format: biochemical. The following applies: 1 mM, read-out: percentage of inhibition, β-Gal. The procedure: (§1) In order to avoid undesired inhibitory side effects of a potential new drug, it has to be selective for a given target. The selectivity of the newly synthesized compounds 14, 15, and 33·HCl toward GCase was then investigated, evaluating their inhibition at 1 mM concentration toward six other lysosomal glycosidases (namely, α-and β-mannosidases, α- and β-galactosidases, α-fucosidase, and α-glucosidase) in cell homogenates (leucocytes or lymphocytes) isolated from healthy donors. […] Indeed, only moderate inhibitory activity (ca. 50%) was found toward human β-galactosidase for both piperidines 14 and 15, while negligible inhibitory activity was detected in all other cases.
The effect of 1 mM concentration of 14, 15, and 33·HCl was assayed toward six lysosomal glycosidases other than GCase, namely, α-mannosidase, β-mannosidase, α-galactosidase, β-galactosidase, α-fucosidase from leukocytes isolated from healthy donors (controls) and α-glucosidase from lymphocytes isolated from healthy donors’ flesh blood (controls). […]
μL, Sigma –Aldrich) in acetate buffer (0.1M, pH 4.3) containing NaCl (0.1M) and sodium azide (0.02%) were incubated at 37 °C for 1 h. The reaction was stopped by addition o f sodium carbonate (200 μL; 0.5M, pH 10.7) containing Triton X -100 (0.0025 %), and the fluorescence 4 -methylumbelliferone released by β-galactosidase activity was measured in SpectraMax M2 microplate reader ( λex=365 nm, λem=435 nm; Molecular Devices). […]
α-Fucosidase activity was measured in a flat -bottomed 96 -well plate. […]
(§2) α-Glucosidase activity was measured in a flat –bottomed 96 well plate. […] The reaction was stopped by the addition of a solution of sodium carbonate (200 µL; 0.5M, pH 10.7) containing Triton X -100 (0.0025 %), and the fluorescence of 4 -methylumbelliferone released by α-glucosidase activity was measured in […]
(§3) Figure S 48. […] The corresponding calculated percentage of inhibition is indicated above each bar.

Test [2] concerns the target T2, α-fucosidase (Homo sapiens, UniProt P04066).
T2 construct: from leukocytes isolated from healthy donors (controls); from tissue; host or cells: leukocytes from healthy donors, sonicated homogenate
T2 sequence (P04066 32-466): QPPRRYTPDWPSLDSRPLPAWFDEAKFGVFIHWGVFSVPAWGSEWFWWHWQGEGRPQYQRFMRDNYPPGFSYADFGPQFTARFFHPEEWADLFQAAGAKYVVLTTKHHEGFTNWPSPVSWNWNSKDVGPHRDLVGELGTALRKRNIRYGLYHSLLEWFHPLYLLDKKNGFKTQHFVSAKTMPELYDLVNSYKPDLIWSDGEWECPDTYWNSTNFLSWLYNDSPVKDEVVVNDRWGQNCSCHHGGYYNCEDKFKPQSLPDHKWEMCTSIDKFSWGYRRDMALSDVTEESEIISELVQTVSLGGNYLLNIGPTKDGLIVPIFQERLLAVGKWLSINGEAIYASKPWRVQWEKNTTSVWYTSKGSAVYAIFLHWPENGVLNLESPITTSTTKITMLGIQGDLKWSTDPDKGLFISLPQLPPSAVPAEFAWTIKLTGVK
The test is described as above. The following applies: 1 mM, read-out: percentage of inhibition, α-Fuco. Format: biochemical. The protocol: as §1
The effect of 1 mM concentration of 14, 15, and 33·HCl was assayed toward six lysosomal glycosidases other than GCase, namely, α-mannosidase, β-mannosidase, α-galactosidase, β-galactosidase, α-fucosidase from leukocytes isolated from healthy donors (controls) and α-glucosidase from lymphocytes isolated from healthy donors’ flesh blood (controls). Isolated leukocytes or lymphocytes were disrupted by sonication, and a micro BCA protein assay kit (Sigma-Aldrich) was used to determine the total protein amount for the enzymatic assay, according to the manufacturer’s instructions (for more details, see the Supporting Information section). […]
α-Fucosidase activity was measured in a flat -bottomed 96 -well plate. […] The reaction was stopped by addition of sodium carbonate (200 μL; 0.5M, pH 10.7) containing Triton X -100 (0.0 025 %), and the fluorescence 4 -methylumbelliferone released by α- fucosidase activity was measured in SpectraMax M2 microplate reader ( λex=365 nm, λem=435 nm; Molecular Devices). […]
as §2, §3

As a reminder, the inhibition is the share of the control response that was lost under treatment. `CCCCCCCC[C@@H]1[C@@H](O)[C@H](O)[C@H](O)CN1CCCCCCCC` [compound 15, (2R,3R,4R,5R)-1,2-Dioctylpiperidine-3,4,5-triol]: the inhibition at 1000 µM came to 51% in test [1] and 24% in test [2].

For the molecule `CCCCCCCC[C@@H]1[C@@H](O)[C@H](O)[C@H](O)CN1C(CCCCCCC)CCCCCCC.Cl` [compound 33·HCl, (2R,3R,4R,5R)-2-Octyl-1-(pentadecan-8-yl)-piperidine-3,4,5-triol Hydrochloride], the inhibition at 1000 µM in test [1] is 15%; in test [2] it was 5%.

Take `CCCCCCCC[C@H]1[C@@H](O)[C@H](O)[C@H](O)CN1CCCCCCCC` [compound 14, (2S,3R,4R,5R)-1,2-Dioctylpiperidine-3,4,5-triol]: the inhibition at 1000 µM in test [1] worked out at 48%; in test [2], 25%.
